Data published in patent US7015309B1 (The Wistar Institute of Anatomy and Biology, priority 1999, dated 2006).
pIC50: −log10 of the molar value. Like-named read-outs stand apart in the source and are kept apart here. Non-standard residues stand in square brackets, D forms with d. Residues, ends and D or L forms follow the SMILES beside them. No end group written: not given here. ξ: configuration not given here. Ac6c = NC1(C(=O)O)CCCCC1; Dap = NC[C@H](N)C(=O)O; ξDap = NCC(N)C(=O)O

Columns and labels:
[1] = for Degradation product −C1, relative amount / Degradation product −C2, relative amount / Degradation product −C3, relative amount / Degradation product −C6, relative amount / Degradation product −N3, C2, relative amount / Degradation product −N3, relative amount / Degradation product −N5, C2, relative amount / Degradation product −N5, relative amount: 45-minute digestion
Description: (§2) Owing to the fact that the use of diluted serum increases peptide recovery as well as retards the reaction kinetics to a manageable rate, the experiments were conducted using 25% aqueous sera.
(§3) For serum stability studies, 10 μl of an aqueous peptide stock solution containing about 0.8 mg/ml peptide was added to 200 μl 25% aqueous pooled mouse or human serum (Sigma, St. Louis, Mo.), according to the process described in M. F. Powell et al, Pharmacol Res, 10: 1268–1273 (1993). The peptide-serum mixture was thermostated at 37° C. After 0 minutes, 45 minutes, 2 hours and 4 hours, three samples of each peptide were taken and precipitated by the addition of 40 μl 15% aqueous trichloroacetic acid. The samples were stored at 4° C. for 20 minutes and centrifuged. The peptides and some remaining serum proteins were recovered in the supernatant after the trichloroacetic acid precipitation. The supernatants were immediately frozen on dry-ice and 220 μl of each were analyzed on RP-HPLC. A mouse serum and two different batches of the same SIGMA catalog number of human sera (human 1, approximately 1 year old, and human 2, approximately 1 month old) were also used.
(§4) The lyophilized samples were redissolved in 0.1 aqueous TFA and submitted for matrix assisted laser desorption/ionization (MALDI-MS).
(§5) The missing residues are indicated (e.g—C2 means that the C-terminal two residues are cleaved off). […] In Table 4, the relative amounts of the degradation products are estimated based on the MALDI-MS peak heights. 0=not detected; 1=very weak (below 5000), 2=weak (5–10000), 3=medium (10–15000), 4=strong (15000-uncleaved molecular ion at 25–30000), 5=very strong (above uncleaved molecular ion).

[2] = test system: Salmonella typhimurium; settings: for pIC50: murium
Description: (§1) Growth inhibition assays were performed using the peptides of Example 1 and the Gram positive microorganisms Micrococcus luteus and Bacillus megaterium, and the Gram negative microorganisms, Escherichia coli D22, Agrobacterium tumefaciens, and Salmonella typhimurium. Anti-bacterial assays were performed in sterilized 96-well plates (Nunc F96 microtiter plates) with a final volume of 100 μl as described in Bulet (1996), cited above. Briefly, 90 μl of a suspension of a midlogarithmic phase bacterial culture at an initial 600 nm UV absorbence of 0.001 in Luria-Bertani rich nutrient medium was added to 10 μl of serially diluted peptides in sterilized water. The final peptide concentrations ranged between 0.15 and 80 μM. The plates were incubated at 30° C. for 24 hours with gentle shaking, and the growth inhibition was measured by recording the increase of the UV absorbence at 600 nm on an SLT Labinstruments 400 ATC microplate reader. The experiments were conducted over a 7-month period.

[3] = test system: Agrobacterium tumefaciens
Description: as §1

[4] = test system: Bacillus megaterium; settings: for pIC50: Bacillus
Description: as §1

[5] = test system: Micrococcus luteus
Description: as §1

[6] = mouse serum, 45-minute digestion, MALDI-MS peak height
Description: as §2, §3, §4, §5

[7] = within a four-hour period; cited from earlier work
[8] = native glycosylated drosocin; cited from earlier work
[9] = test system: bacteria; settings: cited from earlier work
[10] = within a four-hour period; cited from earlier work; remark: listed apart in the source
[11] = test system: Escherichia coli D22; settings: read-out: IC50 in μM against Escherichia coli D22; 30° C., 24 hours; for Peptide 22 original assay (a)
Description: as §1

[12] = In vivo toxicity control, uninfected mice; design: species or system mice of CD-1 strain; settings: 50 mg/kg dose, intravenous
[13] = test system: sheep erythrocytes; assay: Hemolytic activity, release of hemoglobin; settings: for Absorbence at 405 nm: one hour, 39° C.; for toxicity to sheep erythrocytes (in words): 256 μM concentration
Description: To determine whether native and modified pyrrhocoricin peptides were toxic to mammalian cells, several peptides from Example 1 above, a positive control, and a negative control were examined for hemolytic activity. Hemolytic activity was assayed with sheep erythrocytes suspended in Alsever's solution (BioWhittaker, Walkersville, Md.), and diluted with Dulbecco's phosphate-buffered saline, pH 7.2. Thirty μL of a 1% suspension of the red blood cells was incubated with agitation at 39° C. with 30 μL of 40 to 256 μM of each of the following peptides dissolved in phosphate buffered saline for one hour and centrifuged at 1000 g for five minutes. Fifty μL of the supernatant was collected and the release of hemoglobin was detected by measuring the ultraviolet absorbences of triplicate samples of the 40 μM or 256 μM test peptides and the control peptides at 405 nm.

[14] = test system: COS cells; assay: Direct killing of immortalized COS cells; type: cell-based
From the text: In another toxicity assay, COS cell survival was studied for pyrrhocoricin and cecropin B (Bachem Biosciences, King of Prussia, Pa.) as the positive control.

[15] = in vitro; settings: mouse, 25% aqueous pooled mouse serum
Description: as §2, §3, §4, §5

[16] = human 1 serum (approximately 1 year old)
[17] = human 2 serum (approximately 1 month old)

| Compound | Degradation product −C1, relative amount [1, 16] | Degradation product −C2, relative amount [1, 16] | Degradation product −C3, relative amount [1, 16] | Degradation product −C6, relative amount [1, 16] | Degradation product −N3, C2, relative amount [1, 16] | Degradation product −N3, relative amount [1, 16] | Degradation product −N5, C2, relative amount [1, 16] | Degradation product −N5, relative amount [1, 16] | Degradation product −C1, relative amount [1, 17] | Degradation product −C2, relative amount [1, 17] | Degradation product −C3, relative amount [1, 17] | Degradation product −C6, relative amount [1, 17] | Degradation product −N3, C2, relative amount [1, 17] | Degradation product −N3, relative amount [1, 17] | Degradation product −N5, C2, relative amount [1, 17] | Degradation product −N5, relative amount [1, 17] | Degradation product −C1, relative amount [6] | Degradation product −C2, relative amount [6] | Degradation product −C3, relative amount [6] | Degradation product −C6, relative amount [6] | also measured |
| --- | --- | --- | --- | --- | --- | --- | --- | --- | --- | --- | --- | --- | --- | --- | --- | --- | --- | --- | --- | --- | --- |
| CC[C@H](C)[C@H](NC(=O)[C@@H]1CCCN1C(=O)[C@H](CCCNC(=N)N)NC(=O)[C@@H]1CCCN1C(=O)[C@@H]1CCCN1C(=O)[C@@H](NC(=O)[C@@H]1CCCN1C(=O)[C@H](CCCNC(=N)N)NC(=O)[C@@H]1CCCN1C(=O)[C@H](CC(C)C)NC(=O)[C@H](Cc1ccc(O)cc1)NC(=O)[C@H](CO)NC(=O)CNC(=O)[C@H](CCCCN)NC(=O)[C@H](CC(=O)O)NC(=O)[C@@H](NC(=O)[C@H](CCCNC(=N)N)NC(C)=O)C(C)C)[C@@H](C)O)C(=O)N[C@@H](Cc1ccc(O)cc1)C(=O)N[C@@H](CC(N)=O)C(=O)N[C@@H](CCCNC(=N)N)C(=O)N[C@@H](CNC(C)=O)C(N)=O [Peptide 22] (Ac-RVDKGSYLPRPTPPRPIYNR[Dap](Ac)-NH2) | 0 | 5 | 3 (3=medium (10–15000)) | 0 | 1 (1=very weak (below 5000)) | 2 (2=weak (5–10000)) | 2 (2=weak (5–10000)) | 3 (3=medium (10–15000)) | 0 | 5 | 0 | 0 | 0 | 2 (2=weak (5–10000)) | 0 | 1 (1=very weak (below 5000)) | 0 | 2 (2=weak (5–10000)) | 0 | 0 | pIC50 [2]: 5.60; pIC50 ([2]; 24 h): 5.60; pIC50 [3]: 6.22; pIC50 ([3]; 24 h): 5.60; pIC50 [4]: 4.10; pIC50 ([4]; 24 h): 4.40; pIC50 [5]: 5.00; pIC50 ([5]; 24 h): 5.00; degradation rate compared with other peptides (in words) (25% sera, data not shown): degrades considerably faster than either Peptide 1 or Peptide 21; Degradation product −N3, C2, relative amount [6]: 0; Degradation product −N3, relative amount [6]: 0; Degradation product −N5, C2, relative amount [6]: 0; Degradation product −N5, relative amount [6]: 0 |
| GKPRPYSPRPTSHPRPIRV [drosocin] |  |  |  |  |  |  |  |  |  |  |  |  |  |  |  |  |  |  |  |  | degradation in diluted human serum (in words) [7]: completely degraded; anti-bacterial activity when injected into mice (in words) [8]: no anti-bacterial activity; time needed to kill bacteria in vitro [9]: 12 to 24 h; degradation in diluted mouse serum (in words) [10]: completely degraded |
| VDKGSYLPRPTPPRPIYNRN-NH2 [Peptide 1] | 3 (3=medium (10–15000)) | 4 (4=strong (15000-uncleaved molecular ion at 25–30000)) | 3 (3=medium (10–15000)) | 1 (1=very weak (below 5000)) | 0 | 0 | 0 | 2 (2=weak (5–10000)) | 2 (2=weak (5–10000)) | 2 (2=weak (5–10000)) | 0 | 0 | 0 | 0 | 0 | 0 | 2 (2=weak (5–10000)) | 2 (2=weak (5–10000)) | 0 | 0 | IC50 ([2]; read-out: IC50 in μM against Salmonella typhimurium, 30° C., 24 hours, for Peptide 22 original assay (a)): 0.6 µM; IC50 ([3]; read-out: IC50 in μM against Agrobacterium tumefaciens, 30° C., 24 hours, for Peptide 22 original assay (a)): < 0.075 µM; IC50 ([4]; read-out: IC50 in μM against Bacillus megaterium, 30° C., 24 hours, for Peptide 22 original assay (a)): 5 µM; IC50 ([5]; read-out: IC50 in μM against Micrococcus luteus, 30° C., 24 hours, for Peptide 22 original assay (a)): 10 µM; IC50 [11]: < 0.075 µM; toxicity of peptide alone (in words) [12]: Neither Peptides 1 nor 21 [SEQ ID NOS: 6 and 22, respectively] alone showed any toxicity; Absorbence at 405 nm ([13]; 40 μM peptide): 0.108 ± 0.015; toxicity to sheep erythrocytes (in words) [13]: completely non-toxic; Absorbence at 405 nm ([13]; 256 μM peptide): 0.0135 ± 0.005; Cell Count after Treatment ([14]; 5 μM peptide): 18 ± 4; Cell Count after Treatment ([14]; 10 μM peptide): 12 ± 4; Cell Count after Treatment ([14]; 50 μM peptide): 11 ± 1; effect on cell count and rate of proliferation (in words) ([14]; up to 50 μM/mL concentration): did not change; remaining at 8 h [15]: 20%; Degradation product −N3, C2, relative amount [6]: 0; Degradation product −N3, relative amount [6]: 0; Degradation product −N5, C2, relative amount [6]: 0; Degradation product −N5, relative amount [6]: 0 |
| CC[C@H](C)[C@H](NC(=O)[C@@H]1CCCN1C(=O)[C@H](CCCNC(=N)N)NC(=O)[C@@H]1CCCN1C(=O)[C@@H]1CCCN1C(=O)[C@@H](NC(=O)[C@@H]1CCCN1C(=O)[C@H](CCCNC(=N)N)NC(=O)[C@@H]1CCCN1C(=O)[C@H](CC(C)C)NC(=O)[C@H](Cc1ccc(O)cc1)NC(=O)[C@H](CO)NC(=O)CNC(=O)[C@H](CCCCN)NC(=O)[C@H](CC(=O)O)NC(=O)C1(N)CCCCC1)[C@@H](C)O)C(=O)N[C@@H](Cc1ccc(O)cc1)C(=O)N[C@@H](CC(N)=O)C(=O)N[C@@H](CCCNC(=N)N)C(=O)NC(CNC(C)=O)C(N)=O (stereo partly drawn) [Peptide 21, 1-aminocyclo-hexane carboxylic acid (Chex)-Pyrrhocoricin-β-acetyl-2,3-diamino propionic amide [Dap(Ac)]] (H-[Ac6c]DKGSYLPRPTPPRPIYNR[ξDap](Ac)-NH2) | 0 | 4 (4=strong (15000-uncleaved molecular ion at 25–30000)) | 2 (2=weak (5–10000)) | 0 | 0 | 0 | 1 (1=very weak (below 5000)) | 2 (2=weak (5–10000)) | 0 | 4 (4=strong (15000-uncleaved molecular ion at 25–30000)) | 0 | 0 | 0 | 0 | 1 (1=very weak (below 5000)) | 2 (2=weak (5–10000)) | 0 | 2 (2=weak (5–10000)) | 0 | 0 | resistance in human serum compared with Peptide 1 (in words) ([1]; human serum): generally more resistant than Peptide 1; toxicity of peptide alone (in words) [12]: Neither Peptides 1 nor 21 [SEQ ID NOS: 6 and 22, respectively] alone showed any toxicity; peptide still present (in words) (after 8 hours of digestion, all sera studied): traces; Absorbence at 405 nm ([13]; 40 μM peptide): 0.110 ± 0.049; toxicity to sheep erythrocytes (in words) [13]: completely non-toxic; Absorbence at 405 nm ([13]; 256 μM peptide): 0.143 ± 0.006; remaining at 8 h [15]: 20%; Degradation product −N3, C2, relative amount [6]: 0; Degradation product −N3, relative amount [6]: 0; Degradation product −N5, C2, relative amount [6]: 0; Degradation product −N5, relative amount [6]: 2 (2=weak (5–10000)) |
